Data from paper PMC10246841, “CCX559 is a potent, orally-administered small molecule PD-L1 inhibitor that induces anti-tumor immunity” (PLOS ONE, 2023).

Key:
cynomolgus PD-L1 = biological target: T1, cynomolgus PD-L1 (Macaca fascicularis, UniProt G7PSE7); experiment: in vitro cynomolgus PD-L1/PD-1 interaction inhibition assay (S5 Fig); format: binding
T1 construct: with PD-1 (displaced in the assay)

PD-L1 = biological target: T2, PD-L1 (Homo sapiens, UniProt Q9NZQ7); experiment: plate-based (ELISA-type) PD-1/PD-L1 binding inhibition assay with recombinant proteins; also CD80/PD-L1 inhibition and PathHunter PD-L1 dimerization in U2OS cells
T2 construct: gene CD274; with PD-1 (displaced in the assay); PD-L1 homodimer induced
T2 sequence (Q9NZQ7 19-290): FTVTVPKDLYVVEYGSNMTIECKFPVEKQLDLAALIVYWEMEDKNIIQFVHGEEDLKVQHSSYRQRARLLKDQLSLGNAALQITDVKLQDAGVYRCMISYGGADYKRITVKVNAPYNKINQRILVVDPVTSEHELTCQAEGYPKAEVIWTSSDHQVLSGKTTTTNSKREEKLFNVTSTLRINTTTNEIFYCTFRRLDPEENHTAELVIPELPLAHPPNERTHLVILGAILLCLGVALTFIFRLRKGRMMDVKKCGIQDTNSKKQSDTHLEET

T1 sequence (G7PSE7 19-238 limits assumed): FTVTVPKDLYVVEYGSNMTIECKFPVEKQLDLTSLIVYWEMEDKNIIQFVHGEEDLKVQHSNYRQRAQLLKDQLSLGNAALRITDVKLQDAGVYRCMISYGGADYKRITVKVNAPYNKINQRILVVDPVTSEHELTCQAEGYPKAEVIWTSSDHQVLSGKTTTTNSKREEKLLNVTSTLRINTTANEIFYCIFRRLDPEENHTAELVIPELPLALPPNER

Substance CCX559 has an IC50 (cynomolgus PD-L1) of 0.21 nM and an IC50 (PD-L1) of 0.47 nM.
